Results as given in paper PMC8448819, “The Arabidopsis MIK2 receptor elicits immunity by sensing a conserved signature from phytocytokines and microbes” (Nature Communications, 2021).
Where “and” joins values, the source holds several entries; their conditions need not be identical. Equal values may be shown once. Read-outs that look alike come from different tables or passages of the source.

Columns and labels:
[1] = system: mik2-1 and mik2-2 mutant seedlings; format: in vivo, Arabidopsis thaliana; conditions: for Root length (Fig. 3d) / Root length (Fig. 3b) / Root length (Fig. 3e): individual values, one per line
[2] = system: bak1-4 and bak1-5/serk4 mutant seedlings; assay: Root growth assay, coreceptor mutants; format: in vivo, Arabidopsis thaliana
Text: (§1) The Arabidopsis thaliana accession Columbia-0 (Col-0) was used as wild type (WT). T-DNA insertion mutants of mik2-1 (SALK_061769), mik2-2 (SALK_046987), mik2-like (SALK_112341), and rlk7-3 (SALK_120595) were obtained from the Nottingham Arabidopsis Stock Centre (NASC). The fls2 (SALK_141277), bak1-4, bik1-1/pbl1-1, bak1-5/serk4-1, rbohd mutants, and the transgenic line expressing p35S::GFP have been reported previously[19],[62],[63]. The hae/hsl2 mutant was kindly provided by Dr. Reidunn B. Aalen (University of Oslo, Norway), the pepr1-2/pepr2-2 (pepr1,2) mutant by Dr. Zhi Qi (Inner Mongolia University, China), the scoop12 mutant by Dr. Sébastien Aubourg (INRA, France), a transgenic line expressing p35S::Aequorin by Dr. Marc Knight (Durham University, UK), transgenic line expressing pMYB51::GUS by Dr. Frederick M. Ausubel (Harvard Medical School, USA). […]
(§2) Cold stratified seeds were surface-sterilized with 70% (v/v) ethanol for 5 min and were sown on ½MS plates with or without peptides at indicated concentrations. Ten-day-old seedlings grown on plates vertically in a growth chamber were photographed, and the root lengths of seedlings were measured using Image J (http://rsb.info.nih.gov/ij/).

[3] = system: bik1/pbl1 mutant seedlings; assay: Root growth assay, bik1/pbl1 mutant; format: in vivo, Arabidopsis thaliana; conditions: bik1/pbl1, 1 µM
Text: as §1, §2

Arabidopsis WT seedlings = assay: ROS assay (luminol), WT seedlings; format: in vivo, Arabidopsis thaliana; conditions: for ROS production, total luminescence (Fig. 2h): WT seedlings; for ROS production, total luminescence (Fig. 3f): WT
Experimental: (§3) ROS burst was determined by a luminol-based assay. […] Then, ddH2O was replaced by 200 µL of reaction solution containing 50 µM of luminol, and 10 µg/mL of horseradish peroxidase (Sigma-Aldrich) supplemented with or without 100 nM or 1 μM peptide. Luminescence was measured immediately after adding the solution with a luminometer (Glomax 20/20n, Promega) with a one-second interval for 15 min. The total values of ROS production were indicated as means of the relative light units (RLUs).

mik2 mutant seedlings = assay: ROS assay (luminol), mik2 mutants; format: in vivo, Arabidopsis thaliana
Experimental: as §3

[4] = system: MPK3, MPK4 and MPK6 phosphorylation, WT seedlings; assay: MAPK assay (α-pERK1/2 immunoblot), WT; format: in vivo, Arabidopsis thaliana; conditions: Supplementary Fig. 3i
Experimental: Ten-day-old seedlings grown vertically on ½MS plates were transferred to ddH2O overnight for recovery. Then, ddH2O was replaced by 100 nM peptides for the indicated time.

[5] = system: gene expression, RLK7^ECD-MIK2^TK/rlk7 seedlings; assay: RNA-Seq, RLK7^ECD-MIK2^TK/rlk7; format: in vivo, Arabidopsis thaliana; conditions: for gene expression fold change: RLK7ECD-MIK2TK/rlk7, 1 μM PIP1 vs Ctrl, 1 h
Experimental: Seedlings were then treated with or without 1 μM PIP1 or SCOOP12 for 1 or 6 h and harvested for RNA isolation. Total RNAs (5 μg) from two biological replicates were pooled for cDNA library construction. cDNA library preparation and sequencing were carried out on an Illumina HiSeq 4000 platform with 150-nucleotide pair-end reads in LC-BIO (Hangzhou, China). Total reads were mapped to the Arabidopsis genome (TAIR10; www.arabidopsis.org) with Hisat, and the read counts for every gene were generated with StringTie. The expression levels of genes were calculated by quantifying the cDNA fragments per kilobase of transcript per million fragments mapped (FPKM). Differentially expressed genes (DEGs) between different treatments were defined by fold change of read counts at 1 and 6 h compared to that at 0 h (differential expression analysis using edgeR, fold change ≥ 2 with p-value ≤ 0.01). DEGs were listed in Supplementary Data 2.

Arabidopsis = conditions: cited from earlier work
Text: Some plant LRR-RKs are pattern recognition receptors (PRRs) that recognize pathogen- or microbe-associated molecular patterns (PAMPs or MAMPs) or damage-associated molecular patterns (DAMPs) and initiate pattern-triggered immunity (PTI)[10]-[13]. […] Despite the differ ... || Plant plasma membrane-resident RKs perceive diverse exogenous and endogenous signals via the extracellular domain and activate intracellular responses through the cytoplasmic kinase domain[1]-[3]. The chimeric receptors with the swapped extracellular and intracellular domains between different RKs have been used to study the specificity of signal perception and signaling activation[48]-[52]. The extracellular domains of RKs determine the ligand-binding specificity[50],[51],[53]. The intracellular kinase domains of different RKs also trigger specific responses. […] It remains unknown why plants have evolved so many SCOOPs and the functional specificity for different SCOOPs. […] SCOOP12, the most studied SCOOP, is highly expressed in roots (Fig. 2b), and was indicated to regulate ro ...

PNGDIFTGPSGSGHGGGR [SCOOP10B, synthesized SCOOP peptide corresponding to the SxS motif]
root growth retardation, concentration series, mik2-1 ([1]; 1 to 100 nM SCOOP10^B): completely abolished in mik2-1 | Root length (Fig. 3d) ([1]; mik2-1, 1 nM): 32.99 and 31.78 and 33.56 and 34.62 and 30.06 and 35.81 and 29.29 | Root length (Fig. 3d) ([1]; mik2-1, 10 nM): 32.32 and 29.96 and 32.75 and 34.52 and 30.66 and 29.77 and 30.84 and 33.97 | Root length (Fig. 3d) ([1]; mik2-1, 100 nM): 29.63 and 33.44 and 32.76 and 35.81 and 32.02 and 28.87 and 34.13 and 30.25 | Root length (Fig. 3b) ([1]; mik2-1): 25.833 and 26.302 and 24.889 and 27.342 and 26.636 and 27.534 and 28.728 and 25.164 and 27.761 | Root length (Fig. 3e) ([1]; mik2-1): 22.911 and 21.027 and 23.034 and 25.697 and 26.332 and 26.187 and 22.644 and 27.144 and 23.211 and 23.187 | root growth inhibition in mik2 ([1]; mik2-1 and mik2-2, 10-day-old seedlings, 1 µM peptide): insensitive to the treatment of SCOOP10^B | Root length (Fig. 3b) ([1]; mik2-2): 28.386 and 27.709 and 30.155 and 29.447 and 28.883 and 28.332 and 29.63 and 28.607 and 26.83 | Root length (Fig. 3e) ([1]; mik2-2): 22.343 and 22.532 and 23.158 and 21.859 and 27.286 and 27.619 and 26.253 and 24.148 and 29.659 and 25.362 | root growth inhibition in bak1-4 ([2]; bak1-4, 1 µM): partially compromised in bak1-4 | root growth inhibition in bak1-5/serk4 ([2]; bak1-5/serk4, 1 µM): compromised in bak1-4 and bak1-5/serk4 | root growth inhibition in bik1/pbl1 [3]: significantly compromised in the bik1/pbl1 mutant | potency in triggering PTI responses (Arabidopsis WT seedlings; Ca^2+, ROS, MAPK, compared with other SCOOPs): more potent activities than others in triggering PTI responses | ROS production, total luminescence (Fig. 2h) (Arabidopsis WT seedlings; repeat 1): 9151950 | ROS production, total luminescence (Fig. 2h) (Arabidopsis WT seedlings; repeat 2): 10580582 | ROS production, total luminescence (Fig. 2h) (Arabidopsis WT seedlings; repeat 3): 7374543 | ROS production, total luminescence (Fig. 3f) (Arabidopsis WT seedlings; repeat 1): 36200000 | ROS production, total luminescence (Fig. 3f) (Arabidopsis WT seedlings; repeat 2): 29800000 | ROS production, total luminescence (Fig. 3f) (Arabidopsis WT seedlings; repeat 3): 21300000 | ROS production, total luminescence (Fig. 3f) (mik2 mutant seedlings; mik2-1, repeat 1): 113000 | ROS production, total luminescence (Fig. 3f) (mik2 mutant seedlings; mik2-1, repeat 2): 107000 | ROS production, total luminescence (Fig. 3f) (mik2 mutant seedlings; mik2-1, repeat 3): 114000 | ROS production, total luminescence (Fig. 3f) (mik2 mutant seedlings; mik2-2, repeat 1): 119000 | ROS production, total luminescence (Fig. 3f) (mik2 mutant seedlings; mik2-2, repeat 2): 155000 | ROS production, total luminescence (Fig. 3f) (mik2 mutant seedlings; mik2-2, repeat 3): 128000 | ROS production in mik2 (mik2 mutant seedlings; mik2 mutants, 100 nM SCOOPs or 1 µM FocSCOOPL): abolished in mik2 mutants | MAPK activation in shoots and roots [4]: triggered the MAPK activation in both shoots and roots

RLASGP(OH)SPRGRGH [PIP1, secreted peptide, ligand of RLK7]
small peptide genes induced ([5]; RLK7^ECD-MIK2^TK/rlk7, 1 µM PIP1): 51 genes | expression of SCOOP genes ([5]; RLK7^ECD-MIK2^TK/rlk7, 1 µM PIP1, 0, 1 and 6 h): induces the expression of SCOOP genes | SCOOP, STMP and SCOOP/STMP-like genes induced ([5]; RLK7^ECD-MIK2^TK/rlk7, 1 µM PIP1, among 51 induced small peptide genes): 18 genes | gene expression fold change ([5]; gene AT1G53080): 194.45 | gene expression fold change ([5]; gene AT5G52400): 19374.61 | gene expression fold change ([5]; gene AT5G52700): 11109.32 | BIK1 dependence of responses (Arabidopsis): BIK1-independent
